# Source: PMC11111408, “Concurrent inhibition of oncogenic and wild-type RAS-GTP for cancer therapy” (Nature, 2024)
# Where “and” joins values, the source holds several entries; their conditions need not be identical. Equal values may be shown once.
# Key:
# Test in all cases: Cellular BRET between CYPA and small GTPases (RIT1, MRAS, RRAS, RRAS2, Rheb)
# [1] = molecular target: T1, MRAS and other RAS family small GTPase proteins (Homo sapiens, UniProt O14807, Q71R); format: cell-based; conditions: MRAS Q71R, single replicates
# T1 construct: expressed in transfected cells; host or cells: U2OS PPIA-KO
# T1 sequence (O14807 1-208 Q71R): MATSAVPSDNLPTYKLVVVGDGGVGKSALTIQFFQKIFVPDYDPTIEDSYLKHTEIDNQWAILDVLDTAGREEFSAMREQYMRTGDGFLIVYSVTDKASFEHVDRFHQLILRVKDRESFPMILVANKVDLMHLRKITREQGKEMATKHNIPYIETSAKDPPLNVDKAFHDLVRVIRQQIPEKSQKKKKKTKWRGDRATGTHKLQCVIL
# [2] = molecular target: T2, MRAS and other RAS family small GTPase proteins (Homo sapiens, UniProt P10301, G38V); format: cell-based; conditions: RRAS G38V, single replicates
# T2 construct: expressed in transfected cells; host or cells: U2OS PPIA-KO
# T2 sequence (P10301 1-218 G38V): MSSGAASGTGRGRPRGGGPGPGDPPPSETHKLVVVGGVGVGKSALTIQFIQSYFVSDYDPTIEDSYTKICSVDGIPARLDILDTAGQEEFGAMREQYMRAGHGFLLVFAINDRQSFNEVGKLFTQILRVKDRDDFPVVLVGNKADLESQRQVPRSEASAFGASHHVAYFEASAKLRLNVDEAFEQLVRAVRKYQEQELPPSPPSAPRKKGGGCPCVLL
# [3] = molecular target: T3, MRAS and other RAS family small GTPase proteins (Homo sapiens, UniProt P62070, G23V); format: cell-based; conditions: RRAS2 G23V, single replicates
# T3 construct: expressed in transfected cells; host or cells: U2OS PPIA-KO
# T3 sequence (P62070 1-204 G23V): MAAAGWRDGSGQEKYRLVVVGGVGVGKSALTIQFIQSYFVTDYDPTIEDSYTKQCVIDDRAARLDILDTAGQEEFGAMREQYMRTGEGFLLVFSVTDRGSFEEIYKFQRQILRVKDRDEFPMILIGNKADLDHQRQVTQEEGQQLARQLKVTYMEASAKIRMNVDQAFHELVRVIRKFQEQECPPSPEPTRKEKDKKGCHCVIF
# [4] = molecular target: T4, MRAS and other RAS family small GTPase proteins (Homo sapiens, UniProt Q92963); format: cell-based; conditions: RIT1, single replicates
# T4 construct: expressed in transfected cells; host or cells: U2OS PPIA-KO
# [5] = system: MRAS and other RAS family small GTPase proteins; format: cell-based, human; conditions: cellular BRET with CYPA
# T4 sequence (Q92963 whole entry): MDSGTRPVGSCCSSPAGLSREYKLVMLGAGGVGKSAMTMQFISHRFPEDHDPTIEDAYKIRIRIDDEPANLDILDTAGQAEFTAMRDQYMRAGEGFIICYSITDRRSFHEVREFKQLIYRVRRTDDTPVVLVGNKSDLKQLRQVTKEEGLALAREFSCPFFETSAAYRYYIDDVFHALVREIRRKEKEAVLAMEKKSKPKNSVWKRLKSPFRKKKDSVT
smiles,measurement,setting,value
CCn1c(-c2cc(N3CCN(C4CC4)CC3)cnc2[C@H](C)OC)c2c3cc(ccc31)-c1csc(n1)C[C@H](NC(=O)[C@H]1[C@@H]3COC[C@@H]31)C(=O)N1CCC[C@H](N1)C(=O)OCC(C)(C)C2 [RMC-7977],Cellular milliBRET signal between CYPA and small GTPase protein,[1]; RMC-7977 1.524 nM,0.1742 milliBRET and -0.02549 milliBRET and -0.02476 milliBRET and 0.1125 milliBRET and -0.009573 milliBRET and 0.6001 milliBRET
same,Cellular milliBRET signal between CYPA and small GTPase protein,[1]; RMC-7977 4.572 nM,0.2187 milliBRET and 0.4442 milliBRET and 0.7681 milliBRET and 0.6759 milliBRET and 0.0576 milliBRET and 0.4387 milliBRET
same,Cellular milliBRET signal between CYPA and small GTPase protein,[1]; RMC-7977 13.717 nM,1.192 milliBRET and 1.33 milliBRET and 1.81 milliBRET and 1.499 milliBRET and 1.997 milliBRET and 1.461 milliBRET
same,Cellular milliBRET signal between CYPA and small GTPase protein,[1]; RMC-7977 41.152 nM,3.258 milliBRET and 4.102 milliBRET and 3.883 milliBRET and 4.836 milliBRET and 4.487 milliBRET and 5.493 milliBRET
same,Cellular milliBRET signal between CYPA and small GTPase protein,[1]; RMC-7977 123.457 nM,7.175 milliBRET and 7.5859 milliBRET and 7.924 milliBRET and 8.745 milliBRET and 8.3065 milliBRET and 8.689 milliBRET
same,Cellular milliBRET signal between CYPA and small GTPase protein,[1]; RMC-7977 370.370 nM,10.161 milliBRET and 10.397 milliBRET and 10.5343 milliBRET and 10.3086 milliBRET and 10.5443 milliBRET and 10.7709 milliBRET
same,Cellular milliBRET signal between CYPA and small GTPase protein,[1]; RMC-7977 1111.111 nM,10.7121 milliBRET and 10.5516 milliBRET and 12.3365 milliBRET and 10.0544 milliBRET and 11.7366 milliBRET and 10.787 milliBRET
same,Cellular milliBRET signal between CYPA and small GTPase protein,[2]; RMC-7977 1.524 nM,0.03915 milliBRET and 0.5182 milliBRET and 0.5529 milliBRET and 0.4086 milliBRET and -0.3288 milliBRET and -0.1046 milliBRET
same,Cellular milliBRET signal between CYPA and small GTPase protein,[2]; RMC-7977 4.572 nM,0.5753 milliBRET and 0.4746 milliBRET and 0.4726 milliBRET and 0.8392 milliBRET and 0.3184 milliBRET and -0.4343 milliBRET
same,Cellular milliBRET signal between CYPA and small GTPase protein,[2]; RMC-7977 13.717 nM,1.433 milliBRET and 1.375 milliBRET and 1.967 milliBRET and 1.168 milliBRET and -0.05818 milliBRET and -0.1444 milliBRET
same,Cellular milliBRET signal between CYPA and small GTPase protein,[2]; RMC-7977 41.152 nM,2.179 milliBRET and 2.7799 milliBRET and 3.446 milliBRET and 3.438 milliBRET and 1.092 milliBRET and 1.757 milliBRET
same,Cellular milliBRET signal between CYPA and small GTPase protein,[2]; RMC-7977 123.457 nM,6.2456 milliBRET and 5.867 milliBRET and 7.851 milliBRET and 6.806 milliBRET and 4.695 milliBRET and 3.825 milliBRET
same,Cellular milliBRET signal between CYPA and small GTPase protein,[2]; RMC-7977 370.370 nM,10.4854 milliBRET and 10.0017 milliBRET and 10.9416 milliBRET and 10.5658 milliBRET and 8.5015 milliBRET and 8.57 milliBRET
same,Cellular milliBRET signal between CYPA and small GTPase protein,[2]; RMC-7977 1111.111 nM,11.032 milliBRET and 12.1599 milliBRET and 11.6879 milliBRET and 11.9893 milliBRET and 10.1243 milliBRET and 10.2861 milliBRET
same,Cellular milliBRET signal between CYPA and small GTPase protein,[3]; RMC-7977 1.524 nM,-0.2719 milliBRET and -0.4231 milliBRET and 0.2605 milliBRET and -0.1984 milliBRET and 0.524 milliBRET and 0.04711 milliBRET
same,Cellular milliBRET signal between CYPA and small GTPase protein,[3]; RMC-7977 4.572 nM,-0.5269 milliBRET and -0.1093 milliBRET and -0.06611 milliBRET and -0.1023 milliBRET and 0.1899 milliBRET and 0.4007 milliBRET
same,Cellular milliBRET signal between CYPA and small GTPase protein,[3]; RMC-7977 13.717 nM,0.6404 milliBRET and 0.07312 milliBRET and 0.4941 milliBRET and 0.7558 milliBRET and 0.6549 milliBRET and 1.032 milliBRET
same,Cellular milliBRET signal between CYPA and small GTPase protein,[3]; RMC-7977 41.152 nM,0.4251 milliBRET and 1.3441 milliBRET and 1.494 milliBRET and 1.804 milliBRET and 1.776 milliBRET and 2.155 milliBRET
same,Cellular milliBRET signal between CYPA and small GTPase protein,[3]; RMC-7977 123.457 nM,1.79 milliBRET and 2.3918 milliBRET and 3.205 milliBRET and 3.2803 milliBRET and 3.617 milliBRET and 3.886 milliBRET
same,Cellular milliBRET signal between CYPA and small GTPase protein,[3]; RMC-7977 370.370 nM,4.62 milliBRET and 5.516 milliBRET and 5.967 milliBRET and 6.807 milliBRET and 6.877 milliBRET and 7.887 milliBRET
same,Cellular milliBRET signal between CYPA and small GTPase protein,[3]; RMC-7977 1111.111 nM,5.956 milliBRET and 7.6238 milliBRET and 6.926 milliBRET and 8.351 milliBRET and 7.549 milliBRET and 9.519 milliBRET
same,Cellular milliBRET signal between CYPA and small GTPase protein,[4]; RMC-7977 1.524 nM,-0.09879 milliBRET and 0.3095 milliBRET and 0.2348 milliBRET and 0.5374 milliBRET and 0.06248 milliBRET and 1.089 milliBRET
same,Cellular milliBRET signal between CYPA and small GTPase protein,[4]; RMC-7977 4.572 nM,1.317 milliBRET and 0.9916 milliBRET and 1.087 milliBRET and 0.9533 milliBRET and 1.62 milliBRET and 0.6301 milliBRET
same,Cellular milliBRET signal between CYPA and small GTPase protein,[4]; RMC-7977 13.717 nM,2.2977 milliBRET and 1.206 milliBRET and 2.0899 milliBRET and 1.6222 milliBRET and 2.532 milliBRET and 1.262 milliBRET
same,Cellular milliBRET signal between CYPA and small GTPase protein,[4]; RMC-7977 41.152 nM,3.198 milliBRET and 4.946 milliBRET and 3.114 milliBRET and 5.017 milliBRET and 3.557 milliBRET and 4.376 milliBRET
same,Cellular milliBRET signal between CYPA and small GTPase protein,[4]; RMC-7977 123.457 nM,3.95 milliBRET and 6.444 milliBRET and 3.939 milliBRET and 6.521 milliBRET and 4.166 milliBRET and 6.383 milliBRET
same,Cellular milliBRET signal between CYPA and small GTPase protein,[4]; RMC-7977 370.370 nM,5.287 milliBRET and 9.701 milliBRET and 5.757 milliBRET and 9.124 milliBRET and 5.435 milliBRET and 8.897 milliBRET
same,Cellular milliBRET signal between CYPA and small GTPase protein,[4]; RMC-7977 1111.111 nM,5.773 milliBRET and 8.825 milliBRET and 5.603 milliBRET and 8.649 milliBRET and 4.274 milliBRET and 8.593 milliBRET
same,tri-complex formation potency for KRAS versus MRAS and other RAS family small GTPases,[5],more than tenfold more potent
